Consider 18 compounds from patent publication US7022843B1, “β,β′-dihydroxy meso-substituted chlorins, isobacteriochlorins, and bacteriochlorins” (priority 1999, dated 2006).

The test system of series [1] is L1210 cells. Briefly: Phototoxicity in L1210 cells, MTT viability assay. The series is classed as cell-based. The settings on record: for LD50: phototoxicity. The method, then:
The above described compounds were tested in vitro for phototoxicity and dark toxicity in L1210 cells as described in the Example section below. Twenty four compounds which were tested for cytotoxicity are listed in Table 3 below along with BPD-MA.
(§1) Phototoxicity was determined with L11210 cells in the presence of the compound as follows: the L1210 cells were exposed to varying concentrations of the compounds in 96-well microtiter plates for one hour at 37° C. and 5% CO2. No fetal calf serum (FCS) was added at this time. The plate was then illuminated for one hour after which a 10% aqueous FCS solution was added to the wells. The plates were then returned to the CO2 incubator overnight. After incubation, the cells were assayed for viability using the MTT assay (Mossman, T. J. Immunol. Meth. 1983, 65, 55).
For orientation: Formazan colour is commonly taken as a measure of viable cells.

The subject of series [2] is tumors. The settings on record: in sensitizing tumors; cited from earlier work.
For series [3], the system named is L1210 cells. Briefly: Dark cytotoxicity in L1210 cells (plates wrapped in aluminum foil). It is filed as cell-based. The method, then:
The above compounds were also tested for dark toxicity. Dark toxicity refers to the toxicity of the drug to cells in the absence of light. This toxicity is, therefore, not due to singlet oxygen mediated cellular damage.
as §1
Dark cytotoxicity was determined while the plates were wrapped in aluminum foil while under the light source.

The test system of series [4] is tumor. The following applies: in vivo; cited from earlier work.
Series [5] concerns tumors. The settings on record: cited from earlier work.
Series [6] concerns serum proteins. The following applies: normal dose used for PDT (3–5 mg/kg body weight); cited from earlier work.
[7] abbreviates: L1210 cells, 1 h exposure without FCS, 1 h illumination, MTT.

“And” between values parts separate entries of the source, which are not always exact repeats. Equal values may be shown once. Read-outs that look alike come from different tables or passages of the source.

In the case of `C=Cc1c(C)c2cc3nc(cc4[nH]c(cc5nc(cc1[nH]2)C(C)=C5CCC(=O)O)c(CCC(=O)OC)c4C)C1(C)C3=CC=C(C(=O)OC)C1C(=O)OC` (centres unmarked) [BPDMA, reference compound], the LD50 in series [1] is 0.026 µM; in series [1] (setting [7]) it was 0.026 M and 19 ng/mL; in series [1] (L1210 cells, 1 h exposure without FCS, 1 h illumination, MTT, listed as BPD-MA), 19 ng/mL. Also, in series [2], the “times more potent than HpD” value was 70. For the same compound, in series [2], the “times more potent than Photofrin™” value was 45.
`COC(=O)c1ccc(-c2c3nc(c(-c4ccc(C(=O)OC)cc4)c4ccc([nH]4)c(-c4ccc(C(=O)OC)cc4)c4nc(c(-c5ccc(C(=O)OC)cc5)c5ccc2[nH]5)C(O)C4O)C=C3)cc1` (centres unmarked) [Compound 12, T(p-CO2Me)PC(OH)2] registered an LD20dark in series [3] (L1210 cells, absence of light) of 3000 ng/mL. Further, the LD50dark in series [3] (L1210 cells, absence of light) was 15000 ng/mL. The LD50 in series [1] (setting [7]) was 0.136 M and 120 ng/mL; in series [1] (L1210 cells, Table 4) it was 120 ng/mL.
For the compound `COc1cc(OC)cc(-c2c3nc(c(-c4cc(OC)cc(OC)c4)c4ccc([nH]4)c(-c4cc(OC)cc(OC)c4)c4nc(c(-c5cc(OC)cc(OC)c5)c5ccc2[nH]5)C(O)C4O)C=C3)c1` (centres unmarked) [Compound 16, T(m,m′-OCH3)PC(OH)2], in series [3], the LD50dark stood at 12000 ng/mL. In addition, the LD20dark in series [3] (L1210 cells, absence of light) is 5000 ng/mL. Further, the LD50 in series [1] (setting [7]) is 2.25 M and 2000 ng/mL; in series [1] (L1210 cells, Table 4), 2000 ng/mL.
`COc1cc(-c2c3nc(c(-c4ccc(O)c(OC)c4)c4ccc([nH]4)c(-c4ccc(O)c(OC)c4)c4nc(c(-c5ccc(O)c(OC)c5)c5ccc2[nH]5)C(O)C4O)C=C3)ccc1O` (centres unmarked) [Compound 17, T(m-OCH3,p-OH)PC(OH)2]: the LD50dark in series [3] is given as 4500 ng/mL. Moreover, the LD20dark in series [3] (L1210 cells, absence of light) came to 500 ng/mL. Also, the LD50 in series [1] (setting [7]) was 0.0361 M and 30 ng/mL; in series [1] (L1210 cells, Table 4), 30 ng/mL.
In the case of `COc1cc(-c2c3nc(c(-c4cc(OC)c(OC)c(OC)c4)c4ccc([nH]4)c(-c4cc(OC)c(OC)c(OC)c4)c4nc(c(-c5cc(OC)c(OC)c(OC)c5)c5ccc2[nH]5)C(O)C4O)C=C3)cc(OC)c1OC` (centres unmarked) [Compound 18, T(m,p,m′-OCH3)PC(OH)2], the LD50dark in series [3] was found to be 20000 ng/mL. Also, the LD20dark in series [3] (L1210 cells, absence of light) is 7500 ng/mL. The LD50 in series [1] (setting [7]) was 0.0198 M and 20 ng/mL; in series [1] (L1210 cells, Table 4), 20 ng/mL.
`Cc1ccc(-c2c3nc(c(-c4ccc(C)cc4)c4ccc([nH]4)c(-c4ccc(C)cc4)c4nc(c(-c5ccc(C)cc5)c5ccc2[nH]5)C(O)C4O)C=C3)cc1` (centres unmarked) [Compound 21, T(p-CH3)PC(OH)2] had an LD50dark in series [3] of 15000 ng/mL. For the same compound, in series [3] (L1210 cells, absence of light), the LD20dark came to 5000 ng/mL. Also, the LD50 in series [1] (setting [7]) is 9.94 M and 7000 ng/mL; in series [1] (L1210 cells, Table 4) it was 7000 ng/mL.
Regarding `Cc1cc(C)c(-c2c3nc(c(-c4c(C)cc(C)cc4C)c4ccc([nH]4)c(-c4c(C)cc(C)cc4C)c4nc(c(-c5c(C)cc(C)cc5C)c5ccc2[nH]5)C(O)C4O)C=C3)c(C)c1` (centres unmarked) [Compound 22, T(o,p,o′-CH3)PC(OH)2], in series [3], the LD50dark worked out at 18000 ng/mL. In series [3] (L1210 cells, absence of light), this compound gave an LD20dark of 7500 ng/mL. The LD50 is 12.3 M and 10000 ng/mL in series [1] (setting [7]); 10000 ng/mL in series [1] (L1210 cells, Table 4).
With `O=S(=O)(O)c1ccc(-c2c3nc(c(-c4ccc(S(=O)(=O)O)cc4)c4ccc([nH]4)c(-c4ccc(S(=O)(=O)O)cc4)c4nc(c(-c5ccc(S(=O)(=O)O)cc5)c5ccc2[nH]5)C(O)C4O)C=C3)cc1` (centres unmarked) [Compound 23, T(p-SO3H)PC(OH)2], in series [3], the LD50dark was >>20000 ng/mL. The LD20dark in series [3] (L1210 cells, absence of light) is recorded as >20000 ng/mL. The LD50 was 1.11 M and 1000 ng/mL in series [1] (setting [7]); 1000 ng/mL in series [1] (L1210 cells, Table 4).
In the case of `CC(C)(C)c1ccc(-c2c3nc(c(-c4ccc(C(C)(C)C)cc4)c4ccc([nH]4)c(-c4ccc(C(C)(C)C)cc4)c4nc(c(-c5ccc(C(C)(C)C)cc5)c5ccc2[nH]5)C(O)C4O)C=C3)cc1` (centres unmarked) [Compound 24, T(p-t-Bu)PC(OH)2], the LD50dark in series [3] was 7000 ng/mL. Also, in series [3] (L1210 cells, absence of light), the LD20dark was found to be 2000 ng/mL. Besides, the LD50 is 6.88 M and 6000 ng/mL in series [1] (setting [7]); 6000 ng/mL in series [1] (L1210 cells, Table 4).
Compound `OC1c2cc3ccc([nH]3)c(-c3ccccc3)c3nc(cc4ccc([nH]4)c(-c4ccccc4)c(n2)C1O)C=C3` (centres unmarked) [Compound 25, diphenyl-2,3-dihydroxychlorin] returned an LD50dark in series [3] of 5000 ng/mL. Besides, the LD20dark in series [3] (L1210 cells, absence of light) was 1500 ng/mL. For the same compound, the “times more potent than BPD-MA” value in series [1] (fold potency based on LD50) was found to be 10. The “times more potent than HpD” value in series [1] (fold potency based on LD50) was 700. In series [1] (fold potency based on LD50), the “times more potent than Photofrin™” value amounted to 450. The LD50 is 0.0024 M and 1.2 ng/mL in series [1] (setting [7]); 1.2 ng/mL in series [1] (L1210 cells, 1 h exposure without FCS, 1 h illumination, MTT, listed as diphenyl-2,3-dihydroxychlorin); 1.2 ng/mL in series [1] (L1210 cells, Table 4).
For `Oc1ccc(-c2c3nc(c(-c4ccccc4)c4ccc([nH]4)c(-c4ccccc4)c4nc(c(-c5ccccc5)c5ccc2[nH]5)C=C4)C(O)C3O)cc1` (stereo not drawn) [Compound 27, meso-5-(p-hydroxyphenyl)-10,15,20-triphenyl-2,3-dihydroxychlorin], the LD50dark in series [3] is recorded as 9000 ng/mL. The compound also registered an LD20dark in series [3] (L1210 cells, absence of light) of 2000 ng/mL. The LD50 in series [1] (setting [7]) is 0.0211 M and 14 ng/mL; in series [1] (L1210 cells, Table 4), 14 ng/mL.
With `O=[N+]([O-])c1ccc(-c2c3nc(c(-c4ccccc4)c4ccc([nH]4)c(-c4ccccc4)c4nc(c(-c5ccccc5)c5ccc2[nH]5)C=C4)C(O)C3O)cc1` (stereo not drawn) [Compound 28, meso-5-(p-nitrophenyl)-10,15,20-triphenyl-2,3-dihydroxychlorin], the LD50dark in series [3] was found to be 18000 ng/mL. Also, in series [3] (L1210 cells, absence of light), the LD20dark is reported as 2000 ng/mL. The LD50 is 2.42 M and 2000 ng/mL in series [1] (setting [7]); 2000 ng/mL in series [1] (L1210 cells, Table 4).
Turning to `OC1c2nc(c(-c3ccccc3)c3ccc([nH]3)c(-c3ccccc3)c3nc(c(-c4ccccc4)c4ccc([nH]4)c2-c2ccccc2)C(O)C3O)C1O` (centres unmarked) [Compound 29, H2TPB(OH)4], the LD50dark in series [3] was 7500 ng/mL. Also, the LD20dark in series [3] (L1210 cells, absence of light) turned out to be 2500 ng/mL. Moreover, the LD50 in series [1] (setting [7]) is 1.03 M and 700 ng/mL; in series [1] (L1210 cells, Table 4), 700 ng/mL.
`COc1cc(OC)c(-c2c3nc(c(-c4c(OC)cc(OC)cc4OC)c4ccc([nH]4)c(-c4c(OC)cc(OC)cc4OC)c4nc(c(-c5c(OC)cc(OC)cc5OC)c5ccc2[nH]5)C(O)C4O)C(O)C3O)c(OC)c1` (centres unmarked) [Compound 30, T(o,p,o′-OCH3)PB(OH)4]: in series [3], the LD50dark is recorded as 18000 ng/mL. In series [3] (L1210 cells, absence of light), this compound registered an LD20dark of 1200 ng/mL. The LD50 worked out at 18 ng/mL in series [1] (setting [7]) and 18 ng/mL in series [1] (L1210 cells, Table 4).
Take `Oc1cccc(-c2c3nc(c(-c4cccc(O)c4)c4ccc([nH]4)c(-c4cccc(O)c4)c4nc(c(-c5cccc(O)c5)c5ccc2[nH]5)CC4)C=C3)c1` [Tetra(m-hydroxyphenyl)chlorin]: in series [4], the recurrence is on record as 10%; the side effects result was “extended skin sensitivity, severe chest pains and loss of appetite”; the tumor necrosis is 90%. In addition, the LD50 in series [5] (in vivo bioassays) was 3 mg/kg. Moreover, the “times more effective than HpD in destroying tumors” value in series [5] (in vivo) is 25–30.
In the case of `CC1=C(CCC(=O)O)c2cc3[nH]c(cc4nc(cc5[nH]c(cc1n2)c(C)c5C(C)O)C(C)=C4C(C)O)c(C)c3CCC(=O)O` (centres unmarked) [hematoporphyrin], in series [6], the “complexed by serum proteins” value is “at least 95%”.
Take T(p-OCH3)PC(OH)2 [Compound 14]: the LD50dark in series [3] was >20000 ng/mL. The compound also gave an LD20dark in series [3] (L1210 cells, absence of light) of 9000 ng/mL. The LD50 in series [1] (setting [7]) is 7.81 M and 6000 ng/mL; in series [1] (L1210 cells, Table 4), 6000 ng/mL.
On to T(p-OCOEt)PC(OH)2 [Compound 13], for which the LD50dark in series [3] is recorded as 20000 ng/mL. The compound also came in with an LD20dark in series [3] (L1210 cells, absence of light) of 8000 ng/mL. In series [1] (L1210 cells, Table 4), this compound yielded an LD50 of 1000 ng/mL.
